From ChEMBL document CHEMBL5241100, “Sulfonamide derivatives as potential anti-cancer agents and their SARs elucidation” (Eur J Med Chem, 2021)

Tests used:
[1] = target: T1, Induced myeloid leukemia cell differentiation protein Mcl-1 (Homo sapiens, UniProt Q07820); experiment: Inhibition of fluorescent-labeled BID-BH3 peptide binding to Mcl-1 (unknown origin) incubated for 20 mins by fluorescence polarization assay
[2] = tested on: Ca9-22; experiment: Cytotoxicity against human Ca9-22 cells assessed as reduction in cell viability by MTT assay; type: functional
[3] = tested on: HSC-2; experiment: Cytotoxicity against human HSC-2 cells assessed as reduction in cell viability by MTT assay; type: functional
[4] = target: Carbonic anhydrase 1 (Homo sapiens, UniProt P00915); experiment: Inhibition of human CA1
Sequence of Carbonic anhydrase 1 (P00915 whole entry): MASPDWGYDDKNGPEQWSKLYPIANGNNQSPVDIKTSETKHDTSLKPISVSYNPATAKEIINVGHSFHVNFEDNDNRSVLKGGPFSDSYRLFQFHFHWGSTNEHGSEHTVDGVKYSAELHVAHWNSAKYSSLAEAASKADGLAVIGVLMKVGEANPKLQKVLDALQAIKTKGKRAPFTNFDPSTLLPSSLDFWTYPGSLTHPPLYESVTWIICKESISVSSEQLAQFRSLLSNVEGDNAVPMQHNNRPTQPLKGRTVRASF

[5] = target: Carbonic anhydrase 2 (Homo sapiens, UniProt P00918); experiment: Inhibition of human CA2
[6] = target: T2, Carbonic anhydrase 9 (Homo sapiens, UniProt Q16790); experiment: Inhibition of human CA9
[7] = target: Carbonic anhydrase 12 (Homo sapiens, UniProt O43570); experiment: Inhibition of human CA12
Sequence of Carbonic anhydrase 12 (O43570 whole entry): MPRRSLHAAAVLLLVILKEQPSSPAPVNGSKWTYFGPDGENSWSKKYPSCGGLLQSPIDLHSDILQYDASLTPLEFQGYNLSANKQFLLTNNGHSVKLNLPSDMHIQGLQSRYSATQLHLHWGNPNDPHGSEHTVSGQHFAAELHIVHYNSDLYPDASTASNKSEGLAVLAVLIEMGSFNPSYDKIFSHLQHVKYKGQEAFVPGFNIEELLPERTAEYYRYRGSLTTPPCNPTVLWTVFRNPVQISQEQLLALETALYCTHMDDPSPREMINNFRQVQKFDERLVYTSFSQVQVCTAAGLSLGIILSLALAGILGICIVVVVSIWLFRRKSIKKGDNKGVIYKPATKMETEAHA

[8] = tested on: HepG2; experiment: Antiproliferative activity against human HepG2 cells assessed as inhibition of cell growth by SRB assay; type: functional, cell-based
[9] = target: Aromatase (Homo sapiens, UniProt P11511); experiment: Inhibition of human aromatase preincubated with NADPH regenerating system for 10 mins followed by substrate addition by fluorescence based analysis
Sequence of Aromatase (P11511 whole entry): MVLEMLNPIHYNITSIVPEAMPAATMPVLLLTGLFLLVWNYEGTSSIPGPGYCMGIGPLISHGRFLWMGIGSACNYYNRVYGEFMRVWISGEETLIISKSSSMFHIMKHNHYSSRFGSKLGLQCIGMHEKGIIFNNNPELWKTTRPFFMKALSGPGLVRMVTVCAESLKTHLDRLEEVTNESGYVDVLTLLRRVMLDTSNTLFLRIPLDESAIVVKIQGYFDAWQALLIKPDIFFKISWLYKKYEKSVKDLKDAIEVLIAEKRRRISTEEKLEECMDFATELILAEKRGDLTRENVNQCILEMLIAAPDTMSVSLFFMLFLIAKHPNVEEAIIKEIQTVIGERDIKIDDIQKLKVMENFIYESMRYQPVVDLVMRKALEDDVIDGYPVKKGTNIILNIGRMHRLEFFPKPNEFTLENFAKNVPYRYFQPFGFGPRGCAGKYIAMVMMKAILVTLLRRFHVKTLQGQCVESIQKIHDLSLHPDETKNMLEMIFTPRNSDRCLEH

[10] = target: T2, Carbonic anhydrase 9
[11] = target: T1, Induced myeloid leukemia cell differentiation protein Mcl-1; experiment: Inhibition of TAMRA-labeled BIM-BH3 peptide binding to 6His-tagged human recombinant Mcl-1 (171 to 327 residues) incubated for 120 mins by fluorescence polarization assay
[12] = target: T2, Carbonic anhydrase 9; experiment: Inhibition of carbonic anhydrase 9 (unknown origin) using 4-nitrophenylacetate as substrate by UV/visible spectrophotometer analysis
[13] = Oral bioavailability in mouse; type: ADME, organism-based; settings: in vivo
[14] = target: DNA topoisomerase 1 (Homo sapiens, UniProt P11387); experiment: Inhibition of topoisomerase 1 (unknown origin) assessed as relaxation of supercoiled […] incubated for 30 mins ethidium bromide staining based UV transilluminator analysis
Sequence of DNA topoisomerase 1 (P11387 whole entry): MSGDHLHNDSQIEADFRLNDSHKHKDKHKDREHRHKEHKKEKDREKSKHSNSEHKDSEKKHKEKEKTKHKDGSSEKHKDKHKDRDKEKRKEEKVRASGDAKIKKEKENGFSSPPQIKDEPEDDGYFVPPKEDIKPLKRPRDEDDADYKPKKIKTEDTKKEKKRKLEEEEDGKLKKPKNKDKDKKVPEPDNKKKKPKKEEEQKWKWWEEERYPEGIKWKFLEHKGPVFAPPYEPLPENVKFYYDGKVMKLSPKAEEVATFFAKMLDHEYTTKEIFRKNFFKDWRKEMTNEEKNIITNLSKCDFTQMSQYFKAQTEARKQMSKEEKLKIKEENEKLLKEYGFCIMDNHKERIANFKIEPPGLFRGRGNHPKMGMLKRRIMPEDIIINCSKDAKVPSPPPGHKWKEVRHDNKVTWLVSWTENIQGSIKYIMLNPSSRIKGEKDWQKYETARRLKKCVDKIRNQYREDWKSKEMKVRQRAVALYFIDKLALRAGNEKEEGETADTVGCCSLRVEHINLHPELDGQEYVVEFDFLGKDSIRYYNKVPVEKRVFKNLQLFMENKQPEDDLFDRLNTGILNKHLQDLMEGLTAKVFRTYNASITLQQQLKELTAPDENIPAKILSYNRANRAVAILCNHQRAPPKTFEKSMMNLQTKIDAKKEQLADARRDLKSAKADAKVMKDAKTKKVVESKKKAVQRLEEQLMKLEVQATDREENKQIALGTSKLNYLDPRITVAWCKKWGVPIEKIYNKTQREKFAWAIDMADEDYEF

[15] = Inhibition of topoisomerase 2 (unknown origin) assessed as relaxation of supercoiled kDNA incubated for 30 mins ethidium bromide staining based UV transilluminator analysis; design: species or system Homo sapiens
[16] = target: Apoptosis regulator Bcl-2 (Homo sapiens, UniProt P10415); experiment: Inhibition of fluorescent-labeled BID-BH3 peptide binding to Bcl-2 (unknown origin) by fluorescence polarization assay
Sequence of Apoptosis regulator Bcl-2 (P10415 whole entry): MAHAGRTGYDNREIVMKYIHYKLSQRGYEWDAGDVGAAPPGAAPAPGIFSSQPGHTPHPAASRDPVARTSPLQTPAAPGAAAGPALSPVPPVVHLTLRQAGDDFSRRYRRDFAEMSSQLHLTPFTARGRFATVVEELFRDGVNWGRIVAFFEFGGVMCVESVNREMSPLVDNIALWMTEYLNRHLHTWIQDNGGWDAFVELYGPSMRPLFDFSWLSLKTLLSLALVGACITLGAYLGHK

[17] = target: T1, Induced myeloid leukemia cell differentiation protein Mcl-1; experiment: Inhibition of fluorescent-labeled BID-BH3 peptide binding to Mcl-1 (unknown origin) by fluorescence polarization assay
[18] = tested on: Jurkat; type: functional, cell-based; settings: Homo sapiens, 72 h
[19] = tested on: RS4-11; type: functional, cell-based; settings: Homo sapiens, RS4-11, 72 h
[20] = tested on: KG-1; type: functional, cell-based; settings: Homo sapiens, KG-1, 72 h
[21] = tested on: MOLT-4; type: functional, cell-based; settings: Homo sapiens, MOLT-4, 72 h
[22] = tested on: HL-60; type: functional, cell-based; settings: Homo sapiens, HL-60, 72 h
[23] = Half life in iv dosed mouse; type: ADME, organism-based; settings: in vivo
[24] = tested on: OPM-2; experiment: Antitumor activity against firefly luciferase-labeled human OPM-2 cells xenografted in mouse assessed as tumor growth inhibition at 20 mg/kg, po administered once daily with carfilzomib at 3 mg/kg, iv administered twice weekly and measured after 19 days; type: functional; settings: OPM-2, 456 h, time 19 day
[25] = tested on: MOLM-13; experiment: Antitumor activity against human MOLM-13 cells xenografted in mouse assessed as tumor growth inhibition administered with carfilzomib; type: functional
[26] = tested on: HCT-116; experiment: cells; settings: Homo sapiens, HCT-116, 48 h
[27] = target: T1, Induced myeloid leukemia cell differentiation protein Mcl-1; experiment: Inhibition of FITC-labeled BID-BH3 peptide binding to Mcl-1 (unknown origin) by fluorescence polarization assay
[28] = tested on: A-375; experiment: Cytotoxicity against human A-375 cells assessed as inhibition of cell growth; type: functional

T1 sequence (Q07820 whole entry): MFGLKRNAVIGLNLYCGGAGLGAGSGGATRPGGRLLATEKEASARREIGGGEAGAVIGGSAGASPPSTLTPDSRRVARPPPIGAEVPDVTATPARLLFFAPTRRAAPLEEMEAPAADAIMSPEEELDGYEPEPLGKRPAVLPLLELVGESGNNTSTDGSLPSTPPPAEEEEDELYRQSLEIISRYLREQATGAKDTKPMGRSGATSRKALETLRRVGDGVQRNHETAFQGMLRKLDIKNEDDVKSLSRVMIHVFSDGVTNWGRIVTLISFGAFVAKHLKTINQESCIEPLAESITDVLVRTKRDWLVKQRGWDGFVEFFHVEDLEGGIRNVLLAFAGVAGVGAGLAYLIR

## Cc1cc2c(C(C)C)c(O)c(O)c(C=O)c2c(O)c1-c1c(C)cc2c(C(C)C)c(O)c(O)c(C=O)c2c1O [GOSSYPOL]
[1]
  Ki: 0.45 µM

## O=C(NS(=O)(=O)c1ccc(Cl)c([N+](=O)[O-])c1)c1nn(Cc2ccc(Cl)c(Cl)c2)c2ccccc12
[1]
  Ki: 0.43 µM

## COc1cc(C2CC(c3cccs3)=NN2c2ccc(S(N)(=O)=O)cc2)cc(OC)c1OC (stereo not given)
[2]
  CC50: 6.3 µM
[3]
  CC50: 6.3 µM
[4]
  Ki: ≥ 0.23 µM
[5]
  Ki: 0.089 µM
[6]
  Ki: ≥ 0.044 µM
[7]
  Ki: ≥ 0.009 µM

## CC1CCN(S(=O)(=O)c2ccc(C(=O)c3coc4ccc(O)cc34)cc2)CC1
[8]
  IC50: 6.2 µM

## COc1cc2c(cc1OC)CN(S(=O)(=O)c1cccc(-n3cc(COc4ccc5ccccc5c4)nn3)c1)CC2
[9]
  IC50: 0.07 µM

## NS(=O)(=O)c1ccc(O)cc1
[10]
  IC50: 32 µM

## O=C1NSCCOCCCCCCN2C[C@@]3(CCc4cc(Cl)ccc43)COc3ccc1cc32
[11]
  IC50: 0.01 µM

## Nc1ccc(S(=O)(=O)Nc2ccsc2-c2nc(-c3ccccc3)no2)cc1
[12]
  IC50: 0.74 µM

## CC[C@@H]1CC/C=C/[C@H](O)[C@@H]2CC[C@H]2CN2C[C@@]3(CCCc4cc(Cl)ccc43)COc3ccc(cc32)C(=O)NS1(=O)=O
[13]
  bioavailability: 6%

## CC1CCN(S(=O)(=O)c2ccc(-c3ccno3)cc2)CC1
[14]
  IC50: 27.8 µM
[15]
  IC50: 33.6 µM

## O=C(NS(=O)(=O)c1ccc(Cl)c([N+](=O)[O-])c1)[C@@H]1Cc2cc(Br)c(OCc3ccc(-c4ccccc4)cc3)c(Br)c2CC1Cc1ccc([N+](=O)[O-])cc1 (stereo not given in full)
[16]
  Ki: 0.41 µM
[17]
  Ki: 0.26 µM
[18]
  IC50: 12.8 µM
[19]
  IC50: 12.8 µM
[20]
  IC50: 12.8 µM
[21]
  IC50: 12.8 µM
[22]
  IC50: 12.8 µM

## CO[C@@H]1O[C@H](Cn2cc(COc3ccc(S(N)(=O)=O)cc3)nn2)[C@@H](O)[C@H](O)[C@H]1O
[10]
  IC50: 0.007 µM

## CO[C@H]1/C=C/C[C@H](C)[C@@H](C)S(=O)(=O)NC(=O)c2ccc3c(c2)N(C[C@@H]2CC[C@H]21)C[C@@]1(CCCc2cc(Cl)ccc21)CO3 [TAPOTOCLAX]
[13]
  bioavailability: 32%
[23]
  half-life: 14 h
[24]
  inhibition in vivo at 20 mg/kg: 99%
[25]
  inhibition (INH): 99%

## COc1cc(C2CC(c3ccc(F)cc3)=NN2c2ccc(S(N)(=O)=O)cc2)cc(OC)c1OC (stereo not given)
[2]
  CC50: 6.3 µM
[3]
  CC50: 6.3 µM
[4]
  Ki: ≥ 0.23 µM
[5]
  Ki: 0.089 µM
[6]
  Ki: ≥ 0.044 µM
[7]
  Ki: ≥ 0.009 µM

## N#Cc1ccc(CC2Cc3c(cc(Br)c(OCc4ccc(-c5ccccc5)cc4)c3Br)C[C@H]2C(=O)NS(=O)(=O)c2ccc(Cl)c([N+](=O)[O-])c2)cc1 (stereo not given in full)
[16]
  Ki: 0.45 µM
[17]
  Ki: 0.35 µM
[18]
  IC50: 12.8 µM
[19]
  IC50: 12.8 µM
[20]
  IC50: 12.8 µM
[21]
  IC50: 12.8 µM
[22]
  IC50: 12.8 µM

## NS(=O)(=O)c1ccc(CC/N=C2\NC(=O)/C(=C3/C(=O)Nc4ccc(F)cc43)S2)cc1
[26]
  IC50: 3.67 µM

## Cc1cc(S(=O)(=O)N2CC(C(=O)O)Cc3ccccc32)cc(C)c1Cl (racemic)
[27]
  Ki: 0.12 µM
[28]
  GI50: 50 µM

## CC(C)CN1C[C@H](c2ccc(Cl)cc2Cl)Oc2ccc(C(=O)O)cc21
[11]
  IC50: 2.1 µM
